Measurements reported in patent publication US12023384B2, “Immunogenic peptides comprising an MHC class II T cell epitope and a redox motif” (IMCYSE SA, priority 2014, dated 2024).
No end group written: not given here.

Key:
[1] = Evaluation of reductase activity on a synthetic peptide (fluorescence de-quenching); format: biochemical; details: peptide 25 μM, 2.5 μM (FITC-Gly-Cys-Asp)ox, PBS, 40 minutes, 25° C., fluorescence 530 nm
Procedure: The reductase activity of the peptides is determined using a fluorescent described in Tomazzolli et al. (2006) Anal. Biochem. 350, 105-112. Two peptides with a FITC label become self-quenching when they covalently attached to each other via a disulfide bridge. Upon reduction by a peptide in accordance with the present invention, the reduced individual peptides become fluorescent again.
Control experiments were performed with a peptide with a “normal” reducing peptide, i.e. a peptide with a redox motif but without additional histidine and with a peptide comprising no redox motif.
A FITC -NH-Gly-Cys-Asp-COOH peptide was synthesized (Eurogentec, Belgium) and self-quenched by solubilization in DMSO ((FITC-Gly-Cys-Asp)ox). The reduction of 2.5 μM (FITC-Gly-Cys-Asp)ox was followed on a 96 well plate during 40 minutes (25° C.) after incubation in PBS with peptide (25 μM) as listed in the accompanying table, or with 2 mM Dithiothreitol (DTT). Reduction was measured as a function of increase in fluorescence read at 530 nm after excitation at 494 nm, using a CytoFluor® multiplate reader (Applied Biosystems). Results are shown in the table of example 10 under the heading “Reductase activity”.

Human recombinant CD4 = Human recombinant CD4 (Homo sapiens, UniProt P01730); experiment: Polymerization of human recombinant CD4 (non-reducing PAGE); format: biochemical; set-up: key: The Table indicates whether or not a polymerization had occurred (+); details: 50 μM peptide, 300 ng recCD4, Hepes buffer, 15 minutes at 68° C.
Procedure: Fifty μM of DTT is used as a positive control under the same conditions. LDS sample buffer (7.5 μl; non-reducing) is then added to 15 μl of the peptide/CD4 mixture. The mixture is then submitted to non-reducing PAGE. After Coomassie Blue staining, protein bands are analyzed for the presence of monomeric, dimeric or multimeric recCD4, as identified by the decreased migratory capacities into the gel. The Table indicates whether or not a polymerization had occurred (+).

[2] = test system: polyclonal CD4+CD25− cells obtained from animals in which EAE is effective; experiment: Bystander suppression assay with T cell line from immunised mice; format: cell-based, C57BL/6 mice; details: CD4+ T cell line from mice immunised 3 x 20 μg sc on aluminium hydroxide, after four re-stimulations
Procedure: Groups of C57BL/6 mice are immunised subcutaneously (20 μg) with the peptide of example 1 which contains the modified sequence motif [SEQ ID NO: 1] or control peptide [SEQ ID NO: 2, 4 or 7] adsorbed onto aluminium hydroxide. Three injections are performed at 2-week intervals. Ten days after the last immunisation, mice are sacrificed and CD4+ T cells (2×10^6 cells) are prepared from the spleen using magnetic beads. CD4+ T cells are then stimulated in vitro by the MOG T cell epitope (20 μg/ml) presented by adherent spleen cells (2×10^6 cells).
After four re-stimulations, a T cell line is tested in a bystander suppression assay with, as target cells, polyclonal CD4^+CD25^− cells obtained from animals in which EAE (Experimental autoimmune encephalomyelitis) is effective.

Row | Substance | Reductase activity (%) [1] | CD4 polymerisation (Human recombinant CD4) | capacity to induce death in target cells [2]
1 | H CPYCVRSLQPLALEGSLQKRG (HCPYCVRSLQPLALEGSLQKRG; proinsulin) [SEQ ID NO: 108] | 68% | + | 
2 | HCPYCSRVVHLYRNGKD [SEQ ID NO: 1] |  |  | have the capacity to induce death in target cells
3 | CPYCSRVVHLYRNGKD (CPYCSRVVHLYRNGKD-NH2; cysteine pairing not given here) [SEQ ID NO: 7, reference compound] |  |  | have the capacity to induce death in target cells
4 | AHACPYCVRSLQPLALEGSLQKRG (proinsulin) [SEQ ID NO: 110] | 13% | + | 
5 | AAACHGCVRSLQPLALEGSLQKRG (proinsulin) [SEQ ID NO: 114, reference compound] | 22% | low | 
6 | HAACPYCVRSLQPLALEGSLQKRG (proinsulin) [SEQ ID NO: 109] | 0% | + | 
7 | AAACHPCVRSLQPLALEGSLQKRG (proinsulin) [SEQ ID NO: 112, reference compound] | 75% | + | 
8 | AAACPYCVRSLQPLALEGSLQKRG (proinsulin) [SEQ ID NO: 111, reference compound] | 6% | + | 
9 | AAHCHPCVRSLQPLALEGSLQKRG (proinsulin) [SEQ ID NO: 113] | 64% | + | 
